Tested on: J3130
Experiment: Bioassay: induction of growth of drug-dependent femX null mutant J3130 by antibiotics applied on paper discs
Format: cell-based, Streptomyces coelicolor
Details: for induction of growth of J3130 around the paper disc: paper disc on MMT medium spread with J3130 spores, result in words
Source text: To see if growth of J3130 could be induced by control antibiotics known to target the cell envelope, spores of J3130 were spread on MMT medium (Kieser et al, 2000) and potential inducers were applied on paper discs to the freshly spread plates. […] None of the other antibiotics tested, including many cell wall-specific non-glycopeptide antibiotics, induced growth of J3130.
In order to perform the assay of the invention, spores of J3130 are spread on MMT medium at concentration of approximately 5×10^6/12 cm^2 plate. Test compound is applied on paper discs to a number of freshly spread plates in parallel using a different concentration of the test compound in each plate.

| Molecule | induction of growth of J3130 around the paper disc | amount that gives a positive reaction in the bioassay (initial assessment of sensitivity) (J3130 bioassay, two-fold dilution series) [ng] |
| --- | --- | --- |
| CN[C@H](CC(C)C)C(=O)N[C@H]1C(=O)N[C@@H](CC(N)=O)C(=O)N[C@H]2C(=O)N[C@H]3C(=O)N[C@H](C(=O)N[C@H](C(=O)O)c4cc(O)cc(O)c4-c4cc3ccc4O)[C@H](O[C@H]3C[C@](C)(N)[C@@H](O)[C@H](C)O3)c3ccc(c(Cl)c3)Oc3cc2cc(c3O[C@@H]2O[C@H](CO)[C@@H](O)[C@H](O)[C@H]2O[C@H]2C[C@](C)(N)[C@@H](O)[C@H](C)O2)Oc2ccc(cc2Cl)[C@H]1O [Chloroeremomycin] | induced a halo of growth | – |
| CN[C@H](CC(C)C)C(=O)N[C@H]1C(=O)N[C@@H](CC(N)=O)C(=O)N[C@H]2C(=O)N[C@H]3C(=O)N[C@H](C(=O)N[C@H](C(=O)O)c4cc(O)cc(O)c4-c4cc3ccc4O)[C@H](O)c3ccc(c(Cl)c3)Oc3cc2cc(c3O[C@@H]2O[C@H](CO)[C@@H](O)[C@H](O)[C@H]2O[C@H]2C[C@](C)(N)[C@H](O)[C@H](C)O2)Oc2ccc(cc2Cl)[C@H]1O [Vancomycin] | induced a halo of growth | 80 |
| Ristocetin | induced a halo of growth | – |
| N[C@H]1C(=O)N[C@@H]2Cc3ccc(c(Cl)c3)Oc3cc4cc(c3O)Oc3ccc(cc3Cl)[C@@H](O)[C@@H]3NC(=O)[C@H](NC(=O)[C@@H]4NC(=O)[C@@H](NC2=O)c2cc(O)cc(c2)Oc2cc1ccc2OS(=O)(=O)O)c1cc(Cl)c(O)c(c1)-c1c(O)cc(O)cc1[C@@H](C(=O)O)NC3=O [A47934] | induced a halo of growth | – |
